A short description of assay [1]: DRUGMATRIX: GABAA, Chloride Channel, TBOB radioligand binding (ligand: [3H] TBOB). The class given is cell membranes, Rattus norvegicus, Wistar, Cerebral cortex, Membrane. The conditions noted are these: Not Active = under 50% inhibition at 10 µM.
Assay [2] can be described thus: DRUGMATRIX: Calcium Channel Type L, Dihydropyridine radioligand binding (ligand: [3H] Nitrendipine). Particulars: Not Active = under 50% inhibition at 10 µM. The class given is cell membranes, Rattus norvegicus, Wistar, Cerebral cortex, Membrane.
Another assay addresses T1, Progesterone receptor (Bos taurus, UniProt Q690N0).
T1 sequence (Q690N0 whole entry): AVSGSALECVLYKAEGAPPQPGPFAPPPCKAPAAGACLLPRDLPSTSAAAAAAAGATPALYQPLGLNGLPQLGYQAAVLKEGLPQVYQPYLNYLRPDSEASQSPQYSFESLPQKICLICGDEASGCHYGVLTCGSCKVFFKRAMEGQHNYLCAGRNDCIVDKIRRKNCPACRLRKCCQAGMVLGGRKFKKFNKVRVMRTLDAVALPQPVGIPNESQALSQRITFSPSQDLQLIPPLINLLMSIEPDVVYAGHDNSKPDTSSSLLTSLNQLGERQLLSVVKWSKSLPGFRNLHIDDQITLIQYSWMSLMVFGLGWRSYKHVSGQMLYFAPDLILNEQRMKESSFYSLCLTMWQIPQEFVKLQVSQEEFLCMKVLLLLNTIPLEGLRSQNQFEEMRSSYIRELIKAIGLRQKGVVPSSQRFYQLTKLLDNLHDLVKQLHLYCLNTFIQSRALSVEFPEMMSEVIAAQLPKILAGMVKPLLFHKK
The experiment in a line: DRUGMATRIX: Progesterone radioligand binding (ligand: [3H] R-5020). In kind it is tissue-based, Uterus. Particulars: Not Active = under 50% inhibition at 10 µM; for pIC50: read-out: IC50; for pKi: read-out: Ki.

Assay [3] deals with T2, Amine oxidase [flavin-containing] A (Homo sapiens, UniProt P21397).
T2 sequence (P21397 whole entry): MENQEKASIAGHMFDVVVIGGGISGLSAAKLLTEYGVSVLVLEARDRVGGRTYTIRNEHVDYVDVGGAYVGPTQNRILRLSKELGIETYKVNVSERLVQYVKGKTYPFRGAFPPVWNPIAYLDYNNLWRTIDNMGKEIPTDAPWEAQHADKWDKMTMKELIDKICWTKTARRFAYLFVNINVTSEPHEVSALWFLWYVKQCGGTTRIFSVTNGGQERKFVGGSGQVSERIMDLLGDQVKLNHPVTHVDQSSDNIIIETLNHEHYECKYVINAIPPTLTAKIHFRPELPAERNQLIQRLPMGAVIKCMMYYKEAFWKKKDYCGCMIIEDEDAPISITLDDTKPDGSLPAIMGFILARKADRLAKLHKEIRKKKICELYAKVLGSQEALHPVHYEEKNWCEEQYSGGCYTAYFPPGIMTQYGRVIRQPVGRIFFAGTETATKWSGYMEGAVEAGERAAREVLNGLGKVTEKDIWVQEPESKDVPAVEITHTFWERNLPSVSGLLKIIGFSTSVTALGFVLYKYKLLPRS
In words: DRUGMATRIX: Monoamine Oxidase MAO-A enzyme inhibition (substrate: Kynuramine). More on the design: species or system BTI-TN-5B1-4. The conditions noted are these: bti-tn-5b1-4; Not Active = under 50% inhibition at 10 µM.

Assay [4] in a line: DRUGMATRIX: Glutamate, AMPA radioligand binding (ligand: [3H] AMPA). The class given is cell membranes, Rattus norvegicus, Wistar, Cerebral cortex, Membrane. Particulars: Not Active = under 50% inhibition at 10 µM.
The target in assay [5] is Sigma non-opioid intracellular receptor 1 (Homo sapiens, UniProt Q99720). The experiment in a line: DRUGMATRIX: Sigma1 radioligand binding (ligand: [3H] Haloperidol). In kind it is cell membranes, Jurkat, Membrane. Particulars: jurkat; Not Active = under 50% inhibition at 10 µM.

pIC50, pKi: −log10 of the molar value.

Sequence of Sigma non-opioid intracellular receptor 1 (Q99720 whole entry): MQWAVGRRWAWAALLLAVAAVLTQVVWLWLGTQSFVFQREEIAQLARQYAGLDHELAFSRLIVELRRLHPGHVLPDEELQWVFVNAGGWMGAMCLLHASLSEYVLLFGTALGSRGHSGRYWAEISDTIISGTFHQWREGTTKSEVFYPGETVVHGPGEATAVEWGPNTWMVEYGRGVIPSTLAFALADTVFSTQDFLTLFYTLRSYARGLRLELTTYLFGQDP

For `CC(C)C[C@H]1C(=O)N2CCC[C@H]2[C@]2(O)O[C@](NC(=O)[C@@H]3C=C4c5cccc6[nH]cc(c56)C[C@H]4N(C)C3)(C(C)C)C(=O)N12` [ERGOCRYPTINE], the IC50 entry (in assay [1]; in assay [2]; on Progesterone receptor; in assay [3]; in assay [4]; in assay [5]) was “Not Active” throughout. The Ki entry in assay [1], in assay [2] and in assay [4] was “Not Active” each time.
`C[C@]12CC[C@@H]3c4ccc(O)cc4CC[C@H]3[C@@H]1C[C@@H](O)[C@@H]2O` [ESTRIOL]: the IC50 entry (in assay [1]; in assay [2]; on Progesterone receptor; in assay [3]; in assay [4]; in assay [5]) was “Not Active” throughout. Moreover, the Ki entry in assay [1], in assay [2] and in assay [4] was “Not Active” in each case.
The term pIC50 denotes the IC50 on a negative log10 scale, so that one unit is a factor of ten. Usually pKi stands for −log10 of the Ki, conventionally taken in molar units. With `C#C[C@]1(O)CC[C@H]2[C@@H]3CCC4=CC(=O)CC[C@]4(C)[C@H]3CC[C@@]21C` [ETHISTERONE], the IC50 entry in assay [1], in assay [2], in assay [3], in assay [4] and in assay [5] was “Not Active” in each case. Moreover, the Ki entry in assay [1], in assay [2] and in assay [4] was “Not Active” throughout. For the same compound, at Progesterone receptor, the pIC50 was 7.23. The pKi on Progesterone receptor is 8.11.
As for `CC(C)(C(=O)O)c1ccc(C(O)CCCN2CCC(C(O)(c3ccccc3)c3ccccc3)CC2)cc1` (stereo unspecified) [FEXOFENADINE], the IC50 result (in assay [1]; in assay [2]; on Progesterone receptor; in assay [3]; in assay [4]; in assay [5]) was “Not Active” throughout. Besides, the Ki result in assay [1], in assay [2] and in assay [4] was “Not Active” in each case.
Turning to `CN1CCN(c2c(F)cc3c(=O)c(C(=O)O)cn(CCF)c3c2F)CC1` [FLEROXACIN], the IC50 entry (in assay [1]; in assay [2]; on Progesterone receptor; in assay [3]; in assay [4]; in assay [5]) was “Not Active” each time. Besides, the Ki entry in assay [1], in assay [2] and in assay [4] was “Not Active” in each case.
With `O=c1[nH]c(=O)n([C@H]2C[C@H](O)[C@@H](CO)O2)cc1F` [FLOXURIDINE], the IC50 entry (in assay [1]; in assay [2]; at Progesterone receptor; in assay [3]; in assay [4]; in assay [5]) was “Not Active” each time. Besides, the Ki entry in assay [1], in assay [2] and in assay [4] was “Not Active” throughout.
With `COC(=O)Nc1nc2cc(C(=O)c3ccc(F)cc3)ccc2[nH]1` [FLUBENDAZOLE], the IC50 result (in assay [1]; in assay [2]; at Progesterone receptor; in assay [3]; in assay [4]; in assay [5]) was “Not Active” each time. For the same compound, the Ki entry in assay [1], in assay [2] and in assay [4] was “Not Active” throughout.
Take `CC(=O)OCC(=O)[C@@]1(O)CC[C@H]2[C@@H]3CCC4=CC(=O)CC[C@]4(C)[C@@]3(F)[C@@H](O)C[C@@]21C` [FLUDROCORTISONE ACETATE]: the IC50 entry (in assay [1]; in assay [2]; on Progesterone receptor; in assay [3]; in assay [4]; in assay [5]) was “Not Active” throughout. In addition, the Ki entry in assay [1], in assay [2] and in assay [4] was “Not Active” throughout.
`CCOC(=O)c1ncn2c1CN(C)C(=O)c1cc(F)ccc1-2` [FLUMAZENIL]: the IC50 result (in assay [1]; in assay [2]; on Progesterone receptor; in assay [3]; in assay [4]; in assay [5]) was “Not Active” in each case. In addition, the Ki result in assay [1], in assay [2] and in assay [4] was “Not Active” throughout.
As for `CC(=O)OCC(=O)[C@@]12OC(C)(C)O[C@@H]1C[C@H]1[C@@H]3C[C@H](F)C4=CC(=O)C=C[C@]4(C)[C@@]3(F)[C@@H](O)C[C@@]12C` [FLUOCINONIDE], the IC50 entry in assay [1], in assay [2], in assay [3], in assay [4] and in assay [5] was “Not Active” throughout. Also, the Ki result in assay [1], in assay [2] and in assay [4] was “Not Active” each time. Besides, the pIC50 at Progesterone receptor is 7.66. The pKi on Progesterone receptor was 8.54.
Turning to `O=C(O)P(=O)(O)O` [FOSCARNET], the IC50 entry (in assay [1]; in assay [2]; at Progesterone receptor; in assay [3]; in assay [4]; in assay [5]) was “Not Active” throughout. For the same compound, the Ki result in assay [1], in assay [2] and in assay [4] was “Not Active” each time.
On to `Cc1ccc(C)c(OCCCC(C)(C)C(=O)O)c1` [GEMFIBROZIL], for which the IC50 result (in assay [1]; in assay [2]; on Progesterone receptor; in assay [3]; in assay [4]; in assay [5]) was “Not Active” throughout. In addition, the Ki entry in assay [1], in assay [2] and in assay [4] was “Not Active” throughout.
Take `CCC1=C(C)CN(C(=O)NCCc2ccc(S(=O)(=O)NC(=O)N[C@H]3CC[C@H](C)CC3)cc2)C1=O` [GLIMEPIRIDE]: the IC50 entry (in assay [1]; in assay [2]; on Progesterone receptor; in assay [3]; in assay [4]; in assay [5]) was “Not Active” in each case. The Ki result in assay [1], in assay [2] and in assay [4] was “Not Active” in each case.
For the compound `Nc1cc(-c2ccncc2)c[nH]c1=O` [INAMRINONE], the IC50 entry (in assay [1]; in assay [2]; on Progesterone receptor; in assay [3]; in assay [4]; in assay [5]) was “Not Active” throughout. The Ki entry in assay [1], in assay [2] and in assay [4] was “Not Active” each time.
Take `CCCCC1=NC2(CCCC2)C(=O)N1Cc1ccc(-c2ccccc2-c2nnn[nH]2)cc1` [IRBESARTAN]: the IC50 result (in assay [1]; in assay [2]; on Progesterone receptor; in assay [3]; in assay [4]; in assay [5]) was “Not Active” throughout. For the same compound, the Ki result in assay [1], in assay [2] and in assay [4] was “Not Active” throughout.
Consider `CN1CCC(=C2c3ccccc3CC(=O)c3sccc32)CC1` [KETOTIFEN], for which the IC50 result (in assay [1]; in assay [2]; on Progesterone receptor; in assay [3]; in assay [4]; in assay [5]) was “Not Active” throughout. The Ki entry in assay [1], in assay [2] and in assay [4] was “Not Active” each time.

The record behind these values is ChEMBL document CHEMBL1909046, “DrugMatrix in vitro pharmacology data”.
